# Source: patent publication US10738004B2, “Cyclic compound” (Takeda Pharmaceutical Company Limited, priority 2016, dated 2020)
# Legend:
# TLR4 = target: T1, TLR4 (Mus musculus, UniProt Q9QUK6); assay: Suppressive effect on NO production (LPS-stimulated RAW264.7); type: cell-based; settings: mouse macrophage cell line RAW264.7; compound final concentration 10 nM; LPS 1.25 ng/ml + mouse interferon gamma 0.2 ng/ml; nitrite ion in culture supernatant (DAN fluorescence)
# T1 construct: measured using mouse macrophage cell line RAW264.7; endogenous in cells; host or cells: RAW264.7 (mouse macrophage cell line)
# T1 sequence (Q9QUK6 26-835): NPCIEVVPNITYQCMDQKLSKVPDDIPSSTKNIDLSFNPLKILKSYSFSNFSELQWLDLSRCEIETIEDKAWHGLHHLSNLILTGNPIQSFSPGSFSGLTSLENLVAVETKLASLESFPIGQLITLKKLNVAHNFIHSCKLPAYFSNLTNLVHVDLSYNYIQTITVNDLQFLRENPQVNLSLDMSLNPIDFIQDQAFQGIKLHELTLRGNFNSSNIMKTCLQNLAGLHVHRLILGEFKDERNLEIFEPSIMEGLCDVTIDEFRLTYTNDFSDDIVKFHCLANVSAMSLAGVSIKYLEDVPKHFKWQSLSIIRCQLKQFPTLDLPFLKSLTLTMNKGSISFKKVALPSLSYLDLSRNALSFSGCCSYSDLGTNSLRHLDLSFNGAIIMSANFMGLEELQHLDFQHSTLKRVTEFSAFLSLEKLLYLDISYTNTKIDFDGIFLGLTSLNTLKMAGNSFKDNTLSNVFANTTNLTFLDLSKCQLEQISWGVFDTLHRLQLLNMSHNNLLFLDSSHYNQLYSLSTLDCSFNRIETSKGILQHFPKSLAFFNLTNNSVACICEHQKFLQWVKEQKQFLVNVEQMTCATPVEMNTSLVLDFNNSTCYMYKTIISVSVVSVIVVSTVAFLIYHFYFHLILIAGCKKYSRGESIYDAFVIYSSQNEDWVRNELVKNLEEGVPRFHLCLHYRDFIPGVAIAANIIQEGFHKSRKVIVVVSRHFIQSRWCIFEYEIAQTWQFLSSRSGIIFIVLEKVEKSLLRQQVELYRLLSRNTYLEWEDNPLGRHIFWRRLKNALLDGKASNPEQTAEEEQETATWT
# T1 sequence (Q9JHF9 19-160 partner): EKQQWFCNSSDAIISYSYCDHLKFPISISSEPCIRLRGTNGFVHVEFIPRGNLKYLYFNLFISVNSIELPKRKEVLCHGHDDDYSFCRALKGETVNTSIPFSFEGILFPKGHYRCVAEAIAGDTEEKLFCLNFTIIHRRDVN
# Description: The suppressive activity on TLR4 was measured using mouse macrophage cell line RAW264.7 and by an inhibition ratio by the test compound (compound of Example 1) against NO produced by the addition of lipopolysaccharide (LPS). The cells were prepared at 2×10^6 cells/ml in RPMI-1640 medium (phenol red free) supplemented with 10% inactivated fetal calf serum, and seeded in a 384-well plate at 6×10^4 cells/30 μL per well. The cells were cultured overnight at 37° C. under 5% CO2/95% air. The test compound dissolved in DMSO was diluted 200-fold with RPMI-1640 medium to a compound concentration of […]. The prepared test compound (10 μL) was added to the cells (final concentration 10 nM), and LPS (Sigma Ltd.) and mouse interferon gamma (Wako Pure Chemical Industries, Ltd.) were respectively added by 10 μL to the final concentrations of 1.25 ng/ml and 0.2 ng/ml. After further culturing overnight, the concentration of nitrite ion (stable metabolite of NO) in the culture supernatant was measured and used as an index of NO production. The nitrite ion concentration was quantified by adding 10 μL of a solution of 20 μg/mL 2,3-diaminonaphthalene (DAN) in 0.2N HCl to the culture supernatant (20 μL), incubating the mixture at room temperature for 10 min, adding 0.5N NaOH (10 μL), and measuring 460 nm (excitation wavelength 355 nm) fluorescence value by a plate reader EnVision (PerkinElmer). […]
compound,measurement,setting,value
"CCOC(=O)C1=C[C@@H](O)CC[C@H]1S(=O)(=O)Cc1ccc(F)cc1Cl (single isomer, unassigned) [Example 1]",NO production suppression effect at 10 nM (% inhibition),TLR4,98 % inhibition
same,melting point,,155 to 156 °C
